From patent publication US11827646B2, “Compounds for treating spinal muscular atrophy” (Hoffmann-La Roche Inc., priority 2014, dated 2023) come the findings set out here.

Assay [1] has as its system SMN protein in SMA patient fibroblast cells (GM03813). Put plainly: SMN protein assay in cultured cells (SMN HTRF). Format: cell-based. The conditions noted are these: Homo sapiens, SMA Type 1 patient fibroblasts, 48 hours; for EC (1.5-fold): 7-point concentration curve, 1.5 times SMN protein vs vehicle, read-out: EC1.5x SMN protein (EC1.5x concentration for SMN protein expression); for maximal fold induction: fold increase relative to vehicle control, read-out: max. fold increase of SMN protein. The source says:
The term “EC1.5x concentration for SMN protein expression” (or “EC1.5x SMN protein”) is defined as that concentration of test compound that is effective in producing 1.5 times the amount of SMN protein in an SMA patient fibroblast cell compared to the amount produced from the vehicle control.
The SMN HTRF (homogeneous time resolved fluorescence) assay is used to quantify the level of SMN protein in SMA patient fibroblast cells treated with test compounds. Materials used and respective sources are listed below in Table 4.
Cells are thawed and cultured in DMEM-10% FBS for 72 hours. Cells are trypsinized, counted and re-suspended to a concentration of 25,000 cells/mL in DMEM-10% FBS. The cell suspensions are plated at 5,000 cells per well in a 96 well microtiter plate and incubated for 3 to […]. Test compounds are serially diluted 3.16-fold in 100% DMSO to generate a 7-point concentration curve. 1 μL of test compound solution is transferred to cell-containing wells and cells are incubated for 48 hours in a cell culture incubator (37° C., 5% CO2, […]). Triplicate samples are set up for each test compound concentration. After 48 hours, the supernatant is removed from the wells and 25 μL of the RIPA lysis buffer, containing protease inhibitors, is added to the wells and incubated with shaking at room temperature for 1 hour. 25 μL of the diluent is added and then 35 μL of the resulting lysate is transferred to a 384-well plate, where each well contains 5 μL of the antibody solution (1:100 dilution of anti-SMN d2 and anti-SMN kryptate in SMN reconstitution buffer). The plate is centrifuged for 1 minute to bring the solution to the bottom of the wells, then incubated overnight at room temperature. Fluorescence for each well of the plate at 665 nm and 620 nm is measured on an EnVision multilabel plate reader (Perkin-Elmer).
The normalized fluorescence signal is calculated for each sample, Blank and vehicle control well by dividing the signal at 665 nm by the signal at 620 nm. Normalizing the signal accounts for possible fluorescence quenching due to the matrix effect of the lysate. The ΔF value (a measurement of SMN protein abundance as a percent value) for each sample well is calculated by subtracting the normalized average fluorescence for the Blank control wells from the normalized fluorescence for each sample well, then dividing this difference by the normalized average fluorescence for the Blank control wells and multiplying the resulting value by 100. The ΔF value for each sample well represents the SMN protein abundance from test compound-treated samples. The ΔF value for each sample well is divided by the ΔF value for the vehicle control wells to calculate the fold increase in SMN protein abundance relative to the vehicle control. Table 5 provides EC1.5x concentrations for SMN protein expression that was obtained from the 7-point concentration data generated according to the above procedure for particular compounds of the present invention.
Table 6 provides the maximum fold increase of SMN protein that was obtained from the 7-point concentration data generated according to the above procedure for particular compounds of the present invention
A general note: In TR-FRET formats the signal depends on donor and acceptor labels being close together.

Assay [2] has as its system full length SMN2 minigene mRNA (HEK293H cells stably transfected with SMN2-A minigene). As to the kind of experiment: SMN2 minigene mRNA splicing RT-qPCR assay in cultured cells. Format: cell-based. The conditions noted are these: Homo sapiens, HEK293-H, 24 hours, 7-point concentration curve, 1.5-fold increase relative to vehicle, read-out: EC1.5x minigene (EC1.5x concentration for production of full length SMN2 minigene mRNA). The source says: The term “EC1.5x concentration for production of full length SMN2 minigene mRNA” (or “EC1.5x minigene”) is defined as that concentration of test compound that 1 s effective m increasing the amount of full length SMN2 minigene mRNA to a level 1.5-fold greater relative to that in vehicle-treated cells.
The reverse transcription-quantitative PCR-based (RT-qPCR) assay is used to quantify the level of the full length SMN2 minigene (referred to herein by the term “FL SMN2mini”) mRNA containing SMN2 exon 7 in a HEK293H cell line stably transfected with said minigene and treated with a test compound. Materials used and respective sources are listed below in Table 1.
The SMN2-A minigene construct was prepared as described in International Patent Application WO2009/151546A1 page 145 paragraph [00400] to page 147 paragraph [00412](incl. FIG. 1 and FIG. 3 therein).
HEK293H cells stably transfected with the SMN2-A minigene construct (10,000 cells/well) are seeded in 200 μL of cell culture medium (DMEM plus 10% FBS, with 200 μg/mL hygromycin) in 96-well flat-bottom plates and the plate is immediately swirled to ensure proper dispersal of cells and the formation of an even monolayer of cells. Cells are allowed to attach for 6 hours. Test compounds are serially diluted 3.16-fold in 100% DMSO to generate a 7-point concentration curve. A solution of test compound (1 μL, 200× in DMSO) is added to each cell-containing well and the plate is incubated for 24 hours in a cell culture incubator (37° C., 5% CO2, 100% relative humidity). 2 replicates are prepared for each test compound concentration. The cells are then lysed in the Cells-To-Ct lysis buffer and the lysate is stored at −80° C.
Full length SMN2-A minigene and GAPDH mRNA are quantified using the primers and probes referenced in Table 2. Primer SMN Forward A (SEQ ID NO.1) hybridizes to a nucleotide sequence in exon 7 (nucleotide 22 to nucleotide 40), primer SMN Reverse A (SEQ ID NO.2) hybridizes to a nucleotide sequence in the coding sequence of Firefly luciferase, SMN Probe A (SEQ ID NO.3) hybridizes to a nucleotide sequence in exon 7 (nucleotide 50 to nucleotide 54) and exon 8 (nucleotide 1 to nucleotide 21). The combination of these three oligonucleotides detects only SMN1 or SMN2 minigenes (RT-qPCR) and will not detect endogenous SMN1 or SMN2 genes.
The SMN forward and reverse primers are used at final concentrations of 0.4 μM. The SMN probe is used at a final concentration of 0.15 μM. The GAPDH primers are used at final concentrations of 0.2 μM and the probe at 0.15 μM.
The SMN2-minigene GAPDH mix (15 μL total volume) is prepared by combining 7.5 μL of 2×RT-PCR buffer, 0.4 μL of 25×RT-PCR enzyme mix, 0.75 μL of 20×GAPDH primer-probe mix, 4.0075 μL of water, 2 μL of 10-fold diluted cell lysate, 0.06 μL of 100 µM SMN forward primer, 0.06 μL of 100 μM SMN reverse primer, and 0.225 μL of 100 μM SMN probe.
PCR is carried out at the following temperatures for the indicated time: Step 1: 48° C. (15 min); Step 2: 95° C. (10 min); Step 3: 95° C. (15 sec); Step 4: 60° C. (1 min); then repeat Steps 3 and 4 for a total of 40 cycles.
Each reaction mixture contains both SMN2-A minigene and GAPDH primers/probe sets (multiplex design), allowing simultaneous measurement of the levels of two transcripts.
The increase in the abundance of the FL SMN2mini mRNA relative to that in cells treated with vehicle control is determined from real-time PCR data using a modified ΔΔCt method (as described in Livak and Schmittgen, Methods, 2001, 25:402-8). The amplification efficiency E is calculated from the slope of the amplification curve for FL SMN2mini and GAPDH individually. The abundance of FL SMN2mini and GAPDH mRNA are then calculated as (1+E)^−Ct, where Ct is the threshold value for each amplicon. The abundance of FL SMN2mini mRNA is normalized to GAPDH mRNA abundance. […]

As for `Cc1cn2nc(-c3cc(=O)n4cc(N5CCN(C)CC5)ccc4n3)ccc2n1` [Example 1, 2-(2-methylimidazo[1,2-b]pyridazin-6-yl)-7-(4-methylpiperazin-1-yl)pyrido[1,2-a]pyrimidin-4-one], in assay [1], the EC (1.5-fold) was determined as 0.0108 µM and the maximal fold induction turned out to be 1.84. In addition, the EC (1.5-fold) in assay [2] amounted to 0.0035 µM.

As to `Cc1cn2nc(-c3cc(=O)n4cc(N5CCN6CCC[C@@H]6C5)ccc4n3)ccc2n1` [Example 2, 7-[(8aR)-3,4,6,7,8,8a-hexahydro-1H-pyrrolo[1,2-a]pyrazin-2-yl]-2-(2-methylimidazo[1,2-b]pyridazin-6-yl)pyrido[1,2-a]pyrimidin-4-one], the EC (1.5-fold) was determined as 0.0198 µM in assay [1] and 0.0038 µM in assay [2]. For the same molecule, in assay [1], the maximal fold induction came out at 1.76.

Consider `Cc1cn2nc(-c3cc(=O)n4cc(N5CCN6CCC[C@H]6C5)ccc4n3)cc(C)c2n1` [Example 3, 7-[(8aS)-3,4,6,7,8,8a-hexahydro-1H-pyrrolo[1,2-a]pyrazin-2-yl]-2-(2,8-dimethylimidazo[1,2-b]pyridazin-6-yl)pyrido[1,2-a]pyrimidin-4-one], for which, in assay [1], the EC (1.5-fold) is 0.0256 µM and the maximal fold induction was 1.81. Further, the EC (1.5-fold) in assay [2] is 0.0032 µM.

`Cc1cn2nc(-c3cc(=O)n4cc(N5CCN6CCC[C@@H]6C5)ccc4n3)cc(C)c2n1` [Example 4, 7-[(8aR)-3,4,6,7,8,8a-hexahydro-1H-pyrrolo[1,2-a]pyrazin-2-yl]-2-(2,8-dimethylimidazo[1,2-b]pyridazin-6-yl)pyrido[1,2-a]pyrimidin-4-one]: the EC (1.5-fold) in assay [1] came out at 0.0157 µM; in assay [2], 0.0018 µM. Moreover, the maximal fold induction in assay [1] came to 1.76.

As to `Cc1cn2nc(-c3cc(=O)n4cc(N5CCN6CCC[C@@]6(C)C5)ccc4n3)cc(C)c2n1` [Example 5, 7-[(8aS)-8a-methyl-1,3,4,6,7,8-hexahydropyrrolo[1,2-a]pyrazin-2-yl]-2-(2,8-dimethylimidazo[1,2-b]pyridazin-6-yl)pyrido[1,2-a]pyrimidin-4-one], in assay [1], the EC (1.5-fold) was found to be 0.0041 µM and the maximal fold induction came out at 1.71. Moreover, in assay [2], the EC (1.5-fold) turned out to be 0.0006 µM.

As to `Cc1cn2nc(-c3cc(=O)n4cc(N5CCN6CCC[C@]6(C)C5)ccc4n3)cc(C)c2n1` [Example 6, 7-[(8aR)-8a-methyl-1,3,4,6,7,8-hexahydropyrrolo[1,2-a]pyrazin-2-yl]-2-(2,8-dimethylimidazo[1,2-b]pyridazin-6-yl)pyrido[1,2-a]pyrimidin-4-one], the EC (1.5-fold) came out at 0.011 µM in assay [1] and 0.0028 µM in assay [2]. In addition, the maximal fold induction in assay [1] was determined as 1.84.

As to `Cc1cn2nc(-c3cc(=O)n4cc(N5C[C@@H](C)N[C@@H](C)C5)ccc4n3)cc(C)c2n1` [Example 7, 2-(2,8-dimethylimidazo[1,2-b]pyridazin-6-yl)-7-[(3S,5R)-3,5-dimethylpiperazin-1-yl]pyrido[1,2-a]pyrimidin-4-one], in assay [1], the EC (1.5-fold) was determined as 0.0155 µM and the maximal fold induction turned out to be 1.76. Further, the EC (1.5-fold) in assay [2] was 0.0037 µM.

As to `Cc1cn2nc(-c3cc(=O)n4cc(N5CCN[C@@H](C)C5)ccc4n3)cc(C)c2n1` [Example 8, 2-(2,8-dimethylimidazo[1,2-b]pyridazin-6-yl)-7-[(3S)-3-methylpiperazin-1-yl]pyrido[1,2-a]pyrimidin-4-one], in assay [1], the EC (1.5-fold) was 0.0059 µM and the maximal fold induction is 1.85. In addition, in assay [2], the EC (1.5-fold) was determined as 0.0003 µM.

In the case of `Cc1cn2nc(-c3cc(=O)n4cc(N5CCN[C@H](C)C5)ccc4n3)cc(C)c2n1` [Example 9, 2-(2,8-dimethylimidazo[1,2-b]pyridazin-6-yl)-7-[(3R)-3-methylpiperazin-1-yl]pyrido[1,2-a]pyrimidin-4-one], the EC (1.5-fold) in assay [1] was determined as 0.0025 µM; in assay [2] it was 0.0001 µM. In addition, the maximal fold induction in assay [1] came out at 1.92.

In the case of `Cc1cn2nc(-c3cc(=O)n4cc(N5CCNC6(CC6)C5)ccc4n3)ccc2n1` [Example 19, 7-(4,7-diazaspiro[2.5]octan-7-yl)-2-(2-methylimidazo[1,2-b]pyridazin-6-yl)pyrido[1,2-a]pyrimidin-4-one], in assay [1], the EC (1.5-fold) is 0.0298 µM and the maximal fold induction was 1.83.

With `Cc1cn2nc(-c3cc(=O)n4cc(N5C[C@@H](C)N[C@@H](C)C5)cc(C)c4n3)cc(C)c2n1` [Example 26, 2-(2,8-dimethylimidazo[1,2-b]pyridazin-6-yl)-7-[(3R,5S)-3,5-dimethylpiperazin-1-yl]-9-methyl-pyrido[1,2-a]pyrimidin-4-one], in assay [1], the EC (1.5-fold) was determined as 1.23 µM and the maximal fold induction is 1.52.

With `Cc1cn2nc(-c3cc(=O)n4cc(N5CCNC(C)(C)C5)cc(C)c4n3)cc(C)c2n1` [Example 27, 2-(2,8-dimethylimidazo[1,2-b]pyridazin-6-yl)-7-(3,3-dimethylpiperazin-1-yl)-9-methyl-pyrido[1,2-a]pyrimidin-4-one], in assay [1], the EC (1.5-fold) amounted to 0.127 µM and the maximal fold induction worked out at 1.57.
